Source: patent US20050074810A1, “Method for non-invasilvely determining the relative levels of two biological substances” (priority 2001, published 2005)

Experiment: In vitro reverse iontophoretic extraction of valproate and glutamate (Example 1)
Assay type: in vitro ADME, pig
Conditions: glutamate 60 μM
Experimental: The cathodal chamber was sampled only at the end of 5 hours of current passage.
Subsequent to this first period of 5 hours at 0.4 mA, a reduced current of 0.1 mA was passed for the next 19 hours, at the end of which both anodal and cathodal chambers were sampled.
The total experiment therefore lasted 24 hours.

[1] = subdermal valproate 21 μM, 4-5 h, 0.4 mA
[2] = subdermal valproate 21 μM, 5-24 h, 0.1 mA
[3] = subdermal valproate 35 μM, 4-5 h, 0.4 mA
[4] = subdermal valproate 35 μM, 5-24 h, 0.1 mA
[5] = subdermal valproate 70 μM, 4-5 h, 0.4 mA
[6] = subdermal valproate 70 μM, 5-24 h, 0.1 mA
[7] = subdermal valproate 104.5 μM, 4-5 h, 0.4 mA
[8] = subdermal valproate 104.5 μM, 5-24 h, 0.1 mA

With `N[C@@H](CCC(=O)O)C(=O)O` [Glutamate, glutamate] as the molecule, how does the “Transport number (×10^6)” value (subdermal valproate 21 μM, 0-1 h) read?
The value was 7.89 ± 4.51 ×10^6.

What about the Extraction flux (subdermal valproate 21 μM, 0-1 h, 0.4 mA) of the same molecule?
The Extraction flux was 118 pmoles · h^−1 · cm^−2.

What about the “Transport number (×10^6)” value (subdermal valproate 21 μM, 1-2 h) of the same molecule?
Its value is 20.6 ± 7.92 ×10^6.

What about the Extraction flux (subdermal valproate 21 μM, 1-2 h, 0.4 mA) of the same molecule?
Its Extraction flux is 308 pmoles · h^−1 · cm^−2.

What about the “Transport number (×10^6)” value (subdermal valproate 21 μM, 2-3 h) of the same molecule?
The value was 29.5 ± 7.38 ×10^6.

And the Extraction flux (subdermal valproate 21 μM, 2-3 h, 0.4 mA)?
The Extraction flux was 440 pmoles · h^−1 · cm^−2.

What about the “Transport number (×10^6)” value (subdermal valproate 21 μM, 3-4 h) of the same molecule?
The value was 32.1 ± 5.77 ×10^6.

What about the Extraction flux (subdermal valproate 21 μM, 3-4 h, 0.4 mA) of the same molecule?
The Extraction flux was 479 pmoles · h^−1 · cm^−2.

And the Extraction flux [1]?
The Extraction flux was 570 pmoles · h^−1 · cm^−2.

And the “Transport number (×10^6)” value [1]?
The value was 38.2 ± 5.19 ×10^6.

What about the Extraction flux [2] of the same molecule?
The Extraction flux was 142 pmoles · h^−1 · cm^−2.

What about the “Transport number (×10^6)” value [2] of the same molecule?
The value was 38.1 ± 6.24 ×10^6.

And the “Transport number (×10^6)” value (subdermal valproate 35 μM, 0-1 h)?
Its value is 10.4 ± 5.47 ×10^6.

And the Extraction flux (subdermal valproate 35 μM, 0-1 h, 0.4 mA)?
The Extraction flux was 155 pmoles · h^−1 · cm^−2.

And the “Transport number (×10^6)” value (subdermal valproate 35 μM, 1-2 h)?
The value was 24.6 ± 5.83 ×10^6.

And the Extraction flux (subdermal valproate 35 μM, 1-2 h, 0.4 mA)?
Its Extraction flux is 367 pmoles · h^−1 · cm^−2.

What about the “Transport number (×10^6)” value (subdermal valproate 35 μM, 2-3 h) of the same molecule?
Its value is 32.4 ± 5.71 ×10^6.

What about the Extraction flux (subdermal valproate 35 μM, 2-3 h, 0.4 mA) of the same molecule?
Its Extraction flux is 484 pmoles · h^−1 · cm^−2.

And the “Transport number (×10^6)” value (subdermal valproate 35 μM, 3-4 h)?
The value was 38.2 ± 2.84 ×10^6.

What about the Extraction flux (subdermal valproate 35 μM, 3-4 h, 0.4 mA) of the same molecule?
Its Extraction flux is 571 pmoles · h^−1 · cm^−2.

And the Extraction flux [3]?
Its Extraction flux is 588 pmoles · h^−1 · cm^−2.

And the “Transport number (×10^6)” value [3]?
The value was 39.4 ± 3.28 ×10^6.

And the Extraction flux [4]?
The Extraction flux was 143 pmoles · h^−1 · cm^−2.

What about the “Transport number (×10^6)” value [4] of the same molecule?
Its value is 38.3 ± 4.24 ×10^6.

And the “Transport number (×10^6)” value (subdermal valproate 70 μM, 0-1 h)?
Its value is 5.92 ± 3.03 ×10^6.

And the Extraction flux (subdermal valproate 70 μM, 0-1 h, 0.4 mA)?
Its Extraction flux is 88 pmoles · h^−1 · cm^−2.

And the “Transport number (×10^6)” value (subdermal valproate 70 μM, 1-2 h)?
The value was 17.9 ± 6.88 ×10^6.

And the Extraction flux (subdermal valproate 70 μM, 1-2 h, 0.4 mA)?
The Extraction flux was 267 pmoles · h^−1 · cm^−2.

And the “Transport number (×10^6)” value (subdermal valproate 70 μM, 2-3 h)?
Its value is 26.0 ± 6.32 ×10^6.

What about the Extraction flux (subdermal valproate 70 μM, 2-3 h, 0.4 mA) of the same molecule?
Its Extraction flux is 388 pmoles · h^−1 · cm^−2.

What about the “Transport number (×10^6)” value (subdermal valproate 70 μM, 3-4 h) of the same molecule?
Its value is 33.1 ± 6.80 ×10^6.

What about the Extraction flux (subdermal valproate 70 μM, 3-4 h, 0.4 mA) of the same molecule?
Its Extraction flux is 494 pmoles · h^−1 · cm^−2.

What about the Extraction flux [5] of the same molecule?
Its Extraction flux is 524 pmoles · h^−1 · cm^−2.

And the “Transport number (×10^6)” value [5]?
The value was 35.1 ± 5.52 ×10^6.

And the Extraction flux [6]?
The Extraction flux was 146 pmoles · h^−1 · cm^−2.

What about the “Transport number (×10^6)” value [6] of the same molecule?
Its value is 39.2 ± 6.45 ×10^6.

What about the “Transport number (×10^6)” value (subdermal valproate 104.5 μM, 0-1 h) of the same molecule?
Its value is 9.92 ± 4.20 ×10^6.

And the Extraction flux (subdermal valproate 104.5 μM, 0-1 h, 0.4 mA)?
The Extraction flux was 148 pmoles · h^−1 · cm^−2.

And the “Transport number (×10^6)” value (subdermal valproate 104.5 μM, 1-2 h)?
The value was 24.2 ± 4.79 ×10^6.

What about the Extraction flux (subdermal valproate 104.5 μM, 1-2 h, 0.4 mA) of the same molecule?
Its Extraction flux is 361 pmoles · h^−1 · cm^−2.

What about the “Transport number (×10^6)” value (subdermal valproate 104.5 μM, 2-3 h) of the same molecule?
The value was 32.8 ± 3.60 ×10^6.

And the Extraction flux (subdermal valproate 104.5 μM, 2-3 h, 0.4 mA)?
Its Extraction flux is 490 pmoles · h^−1 · cm^−2.

And the “Transport number (×10^6)” value (subdermal valproate 104.5 μM, 3-4 h)?
Its value is 37.9 ± 4.98 ×10^6.

And the Extraction flux (subdermal valproate 104.5 μM, 3-4 h, 0.4 mA)?
The Extraction flux was 566 pmoles · h^−1 · cm^−2.

What about the Extraction flux [7] of the same molecule?
Its Extraction flux is 599 pmoles · h^−1 · cm^−2.

And the “Transport number (×10^6)” value [7]?
Its value is 40.1 ± 5.16 ×10^6.

And the Extraction flux [8]?
The Extraction flux was 157 pmoles · h^−1 · cm^−2.

What about the “Transport number (×10^6)” value [8] of the same molecule?
The value was 42.2 ± 6.22 ×10^6.
